Source: patent US6653331B2, “Targeted drug delivery using sulfonamide derivatives” (Pharmacia & Upjohn Company, priority 1996, dated 2003)

Columns and labels:
[1] = In-vivo metabolic disposition in the dog
Text: (§1) The following observations were made during in-vivo (animal models) and in-vitro (cell cultures) studies of the metabolic disposition of the title compound.

[2] = In-vivo metabolic disposition in the rat
Text: as §1

cells = test: Cytotoxicity in the presence of GST inhibitors; assay type: cell-based
Text: Azide, N3^−, is an agent which is known to be cytotoxic to respiring cells. Azide inhibits ATP production via its interference with the cytochrome electron transport chain involved in the terminal stage of oxidative phosphorylation. The agent is markedly cytotoxic to cells relying on aerobic glycolysis/oxidative phosphorylation as a source of energy. […] Metabolism of J-1 within cells by GST releases the potent azide cytotoxin. Thus, covalent coupling of azide with the p-nitrobenzene sulfonyl moiety masks the cytotoxity of azide until cleavage by GST releases the active cytotoxin.

GST = test: Incubation with GST/GSH, cleavage of the sulfonamide bond; assay type: biochemical
Procedure: The protected title compound of formula J-1 is deprotected by GST/GSH under mild conditions. Incubations of 100 μM of this compound and 500 μM GSH with GST (0.5 mg protein /mL) are carried out in 100 mM phosphate buffer, pH 7.4 for 1 hour, at 37° C. in a volume of 0.5 mL. The cleavage of sulfonamide bond is essentially 100% complete after one hour incubation to yield the compound of formula J-2.
(§2) The protected title compound of J-1 is cleaved upon in-vitro incubation with GST/GSH. Enzymatic cleavage of J-1 yields sulfite (SO3^2−), azide (N3^−), and the glutathione-(p-nitrobenzene) conjugate.

CACO-2 cells = test: Metabolism in CACO-2 cell culture; assay type: in vitro ADME, human
Procedure: as §1, §2

intracellular GSH = settings: cited from earlier work
human hepatocytes = test: In-vitro incubation with human hepatocytes; assay type: in vitro ADME
Text: as §1

GSTA3-3 = biological target: T1, GSTA3-3 (Rattus norvegicus, UniProt P04904); test: Sulfonamidase activity of reconstituted isozyme GSTA3-3; assay type: biochemical; settings: A3 homodimeric isoform of rat liver cytosol
T1 construct: The commercial preparation was a mixture of GST isozymes purified from rat liver; purchased; host or cells: rat liver (tissue-derived)
T1 sequence (P04904 2-221 limits assumed): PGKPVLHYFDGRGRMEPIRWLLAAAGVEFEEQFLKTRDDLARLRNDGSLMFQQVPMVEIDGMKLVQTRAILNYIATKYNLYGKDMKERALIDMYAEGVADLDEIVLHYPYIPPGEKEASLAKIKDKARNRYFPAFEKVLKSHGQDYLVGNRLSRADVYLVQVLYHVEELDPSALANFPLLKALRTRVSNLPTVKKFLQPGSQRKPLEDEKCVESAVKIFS
Text: (§3) As GST exists in a myriad of isoforms, which are active as homodimers and heterodimers, the specific isozyme(s) which was responsible for sulfonamide bond cleavage in the title compound, was investigated. The commercial isozyme mixture was subjected to RP-HPLC on a C18 column (0.45×25 cm). The separation profile of the various isozymes was very similar to that of published work carried out in conditions almost identical to these conditions. […] The HPLC samples were subjected to lyophilization and refolded in an Na-phosphate buffer at pH 6.8. Alternatively, refolding was carried out by subjecting the HPLC samples to a 16 hours dialysis against Na-phosphate, pH 6.8 followed by a 6 hours dialysis against Na-phosphate, pH 7.4; the refolding process was carried out at 4° C. The title compound's sulfonamidase activity of the reconstituted isozymes was proven for the A3 homodimeric isoform (GSTA3-3), and for the M1 isoform (GSTM1-1) of rat liver cytosol. The identity of the A3 isozyme was confirmed by N-terminus amino acid sequence.

GSTM1-1 = biological target: T2, GSTM1-1 (Rattus norvegicus, UniProt P04905); test: Sulfonamidase activity of reconstituted isozyme GSTM1-1; assay type: biochemical; settings: M1 isoform of rat liver cytosol
T2 construct: The commercial preparation was a mixture of GST isozymes purified from rat liver; purchased; host or cells: rat liver (tissue-derived)
T2 sequence (P04905 2-218 limits assumed): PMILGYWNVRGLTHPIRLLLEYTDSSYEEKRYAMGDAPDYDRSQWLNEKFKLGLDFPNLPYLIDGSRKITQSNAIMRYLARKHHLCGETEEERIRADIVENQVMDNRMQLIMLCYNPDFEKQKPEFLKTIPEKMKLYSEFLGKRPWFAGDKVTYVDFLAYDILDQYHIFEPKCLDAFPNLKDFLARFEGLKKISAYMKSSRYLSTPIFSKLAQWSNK
Text: as §3

[3] = tested on: Glutathione-S-transferase (GST); test: Sulfonamidase activity of commercial GST (isozyme mixture from rat liver); assay type: biochemical; settings: title compound and GSH as substrates
Procedure: Indeed, most of the activity of 10 ml of rat liver cytosol extract was retained by a GSH-Sepharose column (3.9 ml bed volume), packed and equilibrated in 20 mM Hepes buffer, pH 7.5, while the majority of the cytosolic protein was found in the effluent. After the column was washed extensively with up to 1 mM GSH, it was eluted with 5, 20, and 50 mM GSH. The various fractions were dialyzed against 20 mM Hepes buffer, pH 7.5 and tested for enzymatic activity using the title compound and GSH as substrates; the fractions were then subjected to SDS-PAGE. […] The GSH dependence for activity, the ability to purify the enzyme in a single step by a GSH affinity column, and the Mr˜25,000 pointed to Glutathione-S-transferase (GST). […] The commercial preparation was a mixture of GST isozymes purified from rat liver.

rat hepatocytes = test: In-vitro incubation with rat hepatocytes; assay type: in vitro ADME
Text: as §1

## CCC[C@@]1(CCc2ccccc2)CC(O)=C([C@H](CC)c2cccc(N)c2)C(=O)O1 [J-2]
[1]
  circulating metabolite of the title compound in the blood: major circulating metabolite
[2]
  circulating metabolite of the title compound in the blood: major circulating metabolite

## [R-(R*,R*)]-5-Cyano-N-[3-[1-[5,6-dihydro-4-hydroxy-2-oxo-6-(2-phenylethyl)-6-propyl-2H-pyran-3-yl]propyl]phenyl]-2-pyridine-sulfonamide [J-1]
cells
  cytotoxicity: relatively non-cytotoxic
GST; yields sulfite, azide and the glutathione-(p-nitrobenzene) conjugate
  cleavage upon in-vitro incubation with GST/GSH: cleaved
CACO-2 cells; known GST inhibitors present
  metabolism to form the azide in the presence of known GST inhibitors: blocked
CACO-2 cells; products compared with enzymatic GST/GSH cleavage
  metabolism in CACO-2 cell culture: yield the same products

## C=C(CC)C(=O)c1ccc(OCC(=O)O)c(Cl)c1Cl [Ethacrynic Acid]
Intracellular GSH
  effect on intracellular GSH: deplete intracellular GSH

## CCC[C@@]1(CCc2ccccc2)CC(O)=C([C@H](CC)c2cccc(NS(=O)(=O)c3ccc(C#N)cn3)c2)C(=O)O1 (relative stereo) [J-1, [R-(R*,R*)]-5-Cyano-N-[3-[1-[5,6-dihydro-4-hydroxy-2-oxo-6-(2-phenylethyl)-6-propyl-2H-pyran-3-yl]propyl]phenyl]-2-pyridine-sulfonamide]
Human hepatocytes
  sulfonamide cleavage with release of J-2: underwent sulfonamide cleavage
GSTA3-3
  sulfonamidase activity of reconstituted isozyme: proven
GSTM1-1
  sulfonamidase activity of reconstituted isozyme: proven
[3]
  sulfonamidase activity of commercial GST: high sulfonamidase activity
Rat hepatocytes
  sulfonamide cleavage with release of J-2: underwent sulfonamide cleavage
GST; 100 μM compound, 500 μM GSH, GST 0.5 mg protein/mL, 100 mM phosphate buffer pH 7.4, 1 hour, 37° C.
  cleavage of sulfonamide bond: ~100%
CACO-2 cells; CACO-2, human colon adenocarcinoma cell line
  sulfonamide cleavage by CACO-2 cells: significant sulfonamide cleavage
CACO-2 cells; CACO-2 cells versus normal cells
  rate of cleavage in CACO-2 cells compared with normal cells: markedly faster
